Measurements published in EP0283369B1, “Use of Metformin in the preparation of medicaments” (LIPHA, LYONNAISE INDUSTRIELLE PHARMACEUTIQUE, priority 1987, dated 1988).

Columns and labels:
[1] = test system: artérioles terminales; experiment: Skin window in the awake hamster: spontaneous microvascular vasomotion; assay type: in vivo; settings: 2 mg/100 g par voie intraveineuse; hamster éveillé; controls: une par minute
Source text: La fenêtre est éclairée par transmission, on observe le lit capillaire au microscope trioculaire. L'image est transformée en vidéosignal par une caméra. L'enregistrement du diamètre des microvaisseaux est réalisé en continu.
Le produit à étudier est administré par voie intra-veineuse.

[2] = test system: cellules musculaires lisses précapillaires; experiment: Hamster cheek pouch microcirculation under pentobarbital anaesthesia; assay type: in vivo; settings: 1-2 mg/100 g par voie intraveineuse; animal anesthésié au pentobarbital (contractions abolished)
[3] = test system: modèle d'ischémie périphérique chez le rat; experiment: Peripheral ischaemia model: microspheres injected into the femoral artery; assay type: in vivo; settings: voie intra péritonéale 20 mg/kg
Source text: Dans un modèle d'ischémie périphérique chez le rat, l'injection de microsphères dans l'artère fémorale, provoque l'apparition d'un oedème de la patte ainsi qu'une baisse des capacités motrices de l'animal.

[4] = test system: cellules endothéliales humaines; experiment: Proliferation of human endothelial cells cultured in hypoxia
Source text: (§1) • la néovascularisation est le résultat d'une prolifération anormale de cellules endothéliales en particulier dans un environnement hypoxique. • * Cette situation peut être reproduite in vitro en étudiant une telle prolifération sur une culture de cellules endothéliales humaines placées en hypoxie. […] Tout d'abord dans le modèle classique de néovascularisation de la cornée du lapin (M.A. Gimbrone Jr, R.S. Cotran, S.B. Leafman et A.J. Folkman, J. Natl Cancer Inst. 52).

[5] = test system: néovascularisation de la cornée du lapin; experiment: Rabbit cornea neovascularisation model; assay type: in vivo; settings: administration in situ
Source text: as §1

[6] = test system: formation de néovaisseaux; experiment: Neovascularisation after irreversible venous occlusion by argon laser photocoagulation in the miniature pig; assay type: in vivo, porc miniature; settings: voie orale, dose journalière de 100 mg, pendant 4 semaines; 6 porcs miniatures
Source text: Pournaras, […] Mbl. Augenheilk. 186 (1985) 471-476). Les expériences ont été partiquées chez le porc miniature. Une occlusion veineuse irréversible a été obtenue par photocoagulation au moyen du laser à Argon. L'angiographie fluorescéinique permet de visualiser 4 semaines après l'occlusion, dans les zones où les vaisseaux de suppléance sont insuffisants en nombre pour assurer la fonction de drainage, […]éovascularisation.

[7] = test system: endothélium en culture sur sa matrice extracellulaire; experiment: Penetration of cancer cells through cultured endothelium on its extracellular matrix; assay type: cell-based; settings: 10⁻⁴ - 10⁻⁵ M; in vitro
[8] = test system: métastases pulmonaires; experiment: Pulmonary metastasis model in the mouse; assay type: in vivo; settings: 25 et 12,5 mg par voie orale; souris

CN(C)C(=N)NC(=N)N [Metformine, N,N-diméthylimidodicarbonimidicdiamide]
fréquence de contractions et dilatations des artérioles terminales [1]: 10 par minute | contractions et relaxations rythmiques des cellules musculaires lisses précapillaires [2]: réapparition des contractions et relaxations rythmiques des cellules musculaires lisses précapillaires | motricité (capacités motrices de l'animal) [3]: récupération totale de la motricité | réduction de l'oedème de la patte [3]: 60% | prolifération de cellules endothéliales humaines en hypoxie ([4]; concentrations de l'ordre de 10⁻⁷ à 10⁻¹² M, hypoxie): inhibe fortement cette prolifération | cytotoxicité sur ces cultures cellulaires ([4]; cultures de cellules endothéliales humaines): ne présente pas de cytotoxicité | apparition des néovaisseaux [5]: inhibe l'apparition des néovaisseaux | apparition d'une néovascularisation [6]: suppression complète de l'apparition d'une néovascularisation | pénétration de cellules cancéreuses à travers l'endothélium [7]: inhibe la pénétration de cellules cancéreuses à travers l'endothélium | baisse du nombre de métastases [8]: 50%
